Measured values published in paper PMC2193345 (The Journal of Experimental Medicine, 2001).

Key:
Assay type in all cases: cell-based
CRTH2 [1] = target: T1, CRTH2 (Homo sapiens, UniProt Q9Y5Y4); assay: 3H-PGD2 competition binding, K562/CRTH2 cells
T1 sequence (Q9Y5Y4 1-395): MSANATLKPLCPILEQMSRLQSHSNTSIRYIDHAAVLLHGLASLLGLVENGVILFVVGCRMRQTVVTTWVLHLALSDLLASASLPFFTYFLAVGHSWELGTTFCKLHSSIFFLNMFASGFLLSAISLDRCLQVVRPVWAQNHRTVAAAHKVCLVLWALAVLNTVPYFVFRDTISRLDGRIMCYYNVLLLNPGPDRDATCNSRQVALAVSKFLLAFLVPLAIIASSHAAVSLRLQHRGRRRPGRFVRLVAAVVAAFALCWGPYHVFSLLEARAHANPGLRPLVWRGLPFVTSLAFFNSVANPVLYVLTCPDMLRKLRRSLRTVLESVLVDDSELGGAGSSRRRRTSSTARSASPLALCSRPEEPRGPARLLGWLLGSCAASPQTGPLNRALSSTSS

DP [2] = target: T2, DP (Homo sapiens, UniProt Q13258); assay: 3H-PGD2 competition binding, K562/DP cells
T2 sequence (Q13258 1-359): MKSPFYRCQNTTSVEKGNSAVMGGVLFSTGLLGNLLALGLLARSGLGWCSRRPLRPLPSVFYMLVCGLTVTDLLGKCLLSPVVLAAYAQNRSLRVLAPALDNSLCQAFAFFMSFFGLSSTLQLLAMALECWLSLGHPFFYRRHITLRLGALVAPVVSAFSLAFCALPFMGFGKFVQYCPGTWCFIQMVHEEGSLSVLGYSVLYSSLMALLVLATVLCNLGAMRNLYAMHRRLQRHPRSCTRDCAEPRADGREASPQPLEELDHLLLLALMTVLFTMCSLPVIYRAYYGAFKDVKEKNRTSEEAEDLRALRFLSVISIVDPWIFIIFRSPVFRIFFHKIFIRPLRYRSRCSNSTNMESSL

CRTH2 [3] = target: T1, CRTH2; assay: 3H-PGD2 saturation binding
DP [4] = target: T2, DP; assay: 3H-PGD2 saturation binding

Structure (SMILES) | Ki (CRTH2 [1]) | Ki (DP [2]) | Kd (CRTH2 [3]) | Kd (DP [4])
CCCCC[C@H](O)/C=C/[C@@H]1[C@@H](C/C=C\CCCC(=O)O)[C@@H](O)C[C@@H]1O [11β-PGF2α] | 20 µM | 1.2 µM | – | –
CCCCC/C=C/C=C1/C(=O)C=C[C@@H]1C/C=C\CCCC(=O)O [15-deoxy-Δ^12,14-PGJ2] | 2.3 µM | > 30 µM | – | –
O=C(O)CCCCCC[C@H]1C(=O)NC(=O)N1CC[C@@H](O)C1CCCCC1 [BW245C] | > 100 µM | 0.05 ± 0.02 µM | – | –
CCCCC/C=C\C[C@@H](O)/C=C/C=C/C=C\[C@@H](O)CCCC(=O)O [LTB4] | > 30 µM | > 30 µM | – | –
CCCCC[C@H](O)/C=C/C=C\C=C\C=C\[C@@H](O)[C@@H](O)CCCC(=O)O [LXA4] | > 30 µM | > 30 µM | – | –
CCCCC[C@H](O)/C=C/[C@H]1C=CC(=O)[C@@H]1C/C=C\CCCC(=O)O [PGA2] | > 30 µM | > 30 µM | – | –
CCCCC[C@H](O)/C=C/[C@H]1[C@H](O)CC(=O)[C@@H]1C/C=C\CCCC(=O)O [PGE2] | 3.1 µM | 2.3 µM | – | –
CCCCC[C@H](O)/C=C/[C@@H]1[C@@H](C/C=C\CCCC(=O)O)[C@H]2CO[C@@H]1C2 [U46619] | > 30 µM | > 30 µM | – | –
CCCCC[C@H](O)C/C=C1/C(=O)C=C[C@@H]1C/C=C\CCCC(=O)O [Δ^12-PGJ2] | 7.1 µM | 5.2 µM | – | –

Compounds with a lower Ki (CRTH2 [1]), results first:

Ki (CRTH2 [1]) | Ki (DP [2]) | Kd (CRTH2 [3]) | Kd (DP [4]) | Structure (SMILES)
0.16 ± 0.035 µM | > 30 µM | – | – | CCCCCC(=O)CC[C@H]1C(=O)C[C@H](O)[C@@H]1C/C=C\CCCC(=O)O [DK-PGD2, 13,14-dihydro-15-keto-PGD2]
0.46 ± 0.12 µM | 0.27 ± 0.046 µM | – | – | CCCCC[C@H](O)/C=C/[C@H]1C(=O)C[C@H](O)[C@@H]1C/C=C\CCCC(=O)OC [PGD2 methyl ester]
0.061 ± 0.023 µM | 0.045 ± 0.017 µM | 0.0313 µM | 0.0377 µM | CCCCC[C@H](O)/C=C/[C@H]1C(=O)C[C@H](O)[C@@H]1C/C=C\CCCC(=O)O [PGD2]
2 µM | > 30 µM | – | – | CCCCC[C@H](O)/C=C/[C@@H]1[C@@H](C/C=C\CCCC(=O)O)[C@@H](O)C[C@H]1O [PGF2α]
0.46 ± 0.16 µM | 0.064 ± 0.013 µM | – | – | CCCCC[C@H](O)/C=C/[C@H]1C(=O)C=C[C@@H]1C/C=C\CCCC(=O)O [PGJ2]
